Where “and” joins values, the source holds several entries; their conditions need not be identical. Identical values can stand only once.
Experiments:
FAP = target: T1, FAP (Homo sapiens, UniProt Q12884); test: Saturation binding on FAP+ CAFs; conditions: for Kd: 0.1 to 10 nM radioligand
T1 construct: the CAF cells overexpressing FAP were seeded at a density of 0.8-1 million cells per well; host or cells: hTERT PF179T prostate cancer-associated fibroblasts
T1 sequence (Q12884 1-760): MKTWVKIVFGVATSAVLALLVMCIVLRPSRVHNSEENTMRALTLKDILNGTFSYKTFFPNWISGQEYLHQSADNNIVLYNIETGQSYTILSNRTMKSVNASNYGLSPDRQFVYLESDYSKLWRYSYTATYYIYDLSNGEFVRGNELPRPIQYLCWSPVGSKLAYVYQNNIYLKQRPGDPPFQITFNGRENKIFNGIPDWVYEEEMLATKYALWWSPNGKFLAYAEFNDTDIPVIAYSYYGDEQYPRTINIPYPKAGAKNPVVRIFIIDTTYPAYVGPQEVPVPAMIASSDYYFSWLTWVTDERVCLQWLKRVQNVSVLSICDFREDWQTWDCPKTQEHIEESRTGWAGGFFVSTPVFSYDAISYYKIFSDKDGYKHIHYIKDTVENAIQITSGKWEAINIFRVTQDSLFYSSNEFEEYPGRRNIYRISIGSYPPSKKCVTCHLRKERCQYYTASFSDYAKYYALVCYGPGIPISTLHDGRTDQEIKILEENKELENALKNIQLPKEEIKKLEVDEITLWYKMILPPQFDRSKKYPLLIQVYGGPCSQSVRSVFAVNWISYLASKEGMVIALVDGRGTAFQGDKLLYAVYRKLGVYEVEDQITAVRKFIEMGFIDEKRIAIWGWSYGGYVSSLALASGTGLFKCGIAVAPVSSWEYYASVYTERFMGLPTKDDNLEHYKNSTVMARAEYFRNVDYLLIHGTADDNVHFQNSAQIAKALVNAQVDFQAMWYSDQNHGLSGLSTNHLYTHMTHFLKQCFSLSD
Description: For receptor saturation studies, FAP^+ CAFs were incubated with 0.1 to 10 nM of the radioligands. For internalization studies, approximately 2.5 pmol of the radioligands were added to CAFs followed by incubation for 15, 30, 60, 90, 120, 180 and 240 min for the ^68Ga-labeled or 30, 60, 120, 240 and 360 min for the ^177Lu-labeled radioligands at 37 °C, 5% CO2. For the externalization studies, approximately 2.5 pmol of the ^177Lu-labeled radioligands were added to CAFs followed by incubation for 2 h at 37 °C, 5% CO2. The amount of externalized activity was measured at 0, 10, 20, 30, 60, 120, 240, and 1440 min (Supplemental Data).
For receptor saturation analysis, the CAF cells overexpressing FAP were seeded at a density of 0.8-1 million cells per well in 6-well plates, pre-coated with BME (Cultrex Reduced Growth Factor Basement Membrane Extract, RGF BME, R&D System, Minneapolis, USA) to enhance cell attachment. The cells were incubated overnight with medium (EMEM supplemented and containing 10% FBS, 100 U/mL penicillin and 100 μg/mL streptomycin). The next day, the medium was removed and the cells were incubated for 30 minutes at 37 °C, with 0.8 mL of fresh medium. Afterwards, the plates were placed on ice for 30 minutes followed by incubation with increasing concentrations of ^68/natGa- and ^177/natLu-labelled DOTAGA.Glu.(FAPI)2 and DO3A.Glu.( FAPI)2 (0.1-10 nM final concentration in the wells). After the addition of the radioligands, the cells were incubated for 120 minutes at 4 °C. Non-specific binding was determined in the presence of UAMC1110 at a final concentration of 1 μM. After the completion of the incubation, the cells were washed twice with ice-cold PBS, followed by solubilization with 1 M NaOH. The cell-associated radioactivity was measured using a gamma-counter. Specific binding was plotted against the total molar concentration of the added radiotracer. The Kd values and the concentration of the radioligand required to saturate the receptors (Bmax) were determined by nonlinear regression using GraphPad (Prism 8 Graph Pad Software, San Diego, CA). For all the cell studies the values are normalized for 1x10^6 cells per well and all data are from two independent experiments with triplicates in each experiment.

PC3-mice = test: Biodistribution in PC3-mice incl. blocking; type: in vivo, mouse; conditions: PC3-mice; for tumor uptake: sustained up to 3 h p.i.
Description: Male athymic Balb/C nude mice (6 weeks/20–25 g) were implanted with PC3 cells (3.5 × 10^6/100 µL PBS) into their right shoulder to develop tumors. The animals were used for biodistribution and PET/SPECT/CT imaging studies, once tumors reached 250–300 mm^3.
All mice were euthanized with intraperitoneal injection of pentobarbital (150 mg/kg), and selected organs were dissected, weighed, and measured for radioactivity using a gamma-counter. Results are expressed as % injected activity per gram tissue (% I.A./g), presented as mean ± SD (n = 3–4).

[1] = listed as 68/natGa-DO3A.Glu.(FAPI)2
[2] = Blocking 1h (20 nmol unlabeled precursor)
[3] = listed as 68/natGa-DOTAGA.Glu.(FAPI)2

## N#C[C@@H]1CC(F)(F)CN1C(=O)CNC(=O)c1ccnc2ccc(OCCCCNC(=O)CC[C@H](NC(=O)CN3CCN(CC(=O)[O-])CCN(CC(=O)[O-])CCN(CC(=O)[O-])CC3)C(=O)NCCCCOc3ccc4nccc(C(=O)NCC(=O)N5CC(F)(F)C[C@H]5C#N)c4c3)cc12.[68Ga+3] [[^68Ga]Ga-DO3A.Glu.(FAPI)2]
FAP; [1]
  Kd: 0.9 nM and 0.89 nM
  Bmax: 0.5 ± 0.05 nM and 0.54 ± 0.05 nM
PC3-mice; 1 h p.i.
  Uptake in Adrenal: 3.6±1.1 %I.A./g
  Uptake in Blood: 2±0.1 %I.A./g
  Uptake in Bone: 5±3.1 %I.A./g
  Uptake in Gallbladder: 2.3±1.8 %I.A./g
  Uptake in Heart: 1±0.1 %I.A./g
  Uptake in Intestine: 0.9±0.2 %I.A./g
  Uptake in Kidney: 6.7±1.7 %I.A./g
  Uptake in Liver: 4.2±1.2 %I.A./g
  Uptake in Lung: 3.8±1 %I.A./g
  Uptake in Muscle: 2±0.03 %I.A./g
  Uptake in Pancreas: 1.8±0.1 %I.A./g
  Uptake in Salivary glands: 6.4±0.5 %I.A./g
  Uptake in Spleen: 1.3±0.3 %I.A./g
  Uptake in Stomach: 0.9±0.1 %I.A./g
  Uptake in Tumor: 19±2.4 %I.A./g
PC3-mice; 2 h p.i.
  Uptake in Adrenal: 2.5±0.8 %I.A./g
  Uptake in Blood: 2.2±0.1 %I.A./g
  Uptake in Bone: 6.3±1 %I.A./g
  Uptake in Gallbladder: 3.5±1.8 %I.A./g
  Uptake in Heart: 0.8±0.03 %I.A./g
  Uptake in Intestine: 1±0.2 %I.A./g
  Uptake in Kidney: 4.4±0.8 %I.A./g
  Uptake in Liver: 3.3±0.9 %I.A./g
  Uptake in Lung: 2.5±0.6 %I.A./g
  Uptake in Muscle: 1.3±0.3 %I.A./g
  Uptake in Pancreas: 1.7±0.1 %I.A./g
  Uptake in Salivary glands: 5.2±0.1 %I.A./g
  Uptake in Spleen: 1.6±0.4 %I.A./g
  Uptake in Stomach: 0.9±0.1 %I.A./g
  Uptake in Tumor: 19.6 ± 0.7 %I.A./g
PC3-mice; 3 h p.i.
  Uptake in Adrenal: 2.4±0.8 %I.A./g
  Uptake in Blood: 2.2±0.1 %I.A./g
  Uptake in Bone: 5.8±1 %I.A./g
  Uptake in Gallbladder: 1.7±0.9 %I.A./g
  Uptake in Heart: 0.7±0.1 %I.A./g
  Uptake in Intestine: 0.9±0.2 %I.A./g
  Uptake in Kidney: 3.4±0.4 %I.A./g
  Uptake in Liver: 2.8±0.3 %I.A./g
  Uptake in Lung: 1.7±0.3 %I.A./g
  Uptake in Muscle: 1.1±0.1 %I.A./g
  Uptake in Pancreas: 1.4±0.1 %I.A./g
  Uptake in Salivary glands: 5±1.4 %I.A./g
  Uptake in Spleen: 1.4±0.3 %I.A./g
  Uptake in Stomach: 0.7±0.02 %I.A./g
  Uptake in Tumor: 17.5 ± 1.1 %I.A./g
PC3-mice; [2]
  Uptake in Adrenal: 0.1±0.6 %I.A./g
  Uptake in Blood: 2.3±0.5 %I.A./g
  Uptake in Bone: 0.3±0.1 %I.A./g
  Uptake in Gallbladder: 3.5±0.3 %I.A./g
  Uptake in Heart: 0.7±0.2 %I.A./g
  Uptake in Intestine: 0.8±0.3 %I.A./g
  Uptake in Kidney: 6.2±1.2 %I.A./g
  Uptake in Liver: 3.2±0.7 %I.A./g
  Uptake in Lung: 2.1±0.4 %I.A./g
  Uptake in Muscle: 0.3±0.01 %I.A./g
  Uptake in Pancreas: 0.4±0.1 %I.A./g
  Uptake in Salivary glands: 0.7±0.1 %I.A./g
  Uptake in Spleen: 1±0.1 %I.A./g
  Uptake in Stomach: 0.8±0.3 %I.A./g
  Uptake in Tumor: 1.3±0.2 %I.A./g
PC3-mice; over 3 h
  Blood pool retention: around 2 %I.A./g
PC3-mice
  tumor uptake: 18–19 %I.A./g

## N#C[C@@H]1CC(F)(F)CN1C(=O)CNC(=O)c1ccnc2ccc(OCCCCNC(=O)CC[C@H](NC(=O)CCC(C(=O)O)N3CCN(CC(=O)[O-])CCN(CC(=O)[O-])CCN(CC(=O)[O-])CC3)C(=O)NCCCCOc3ccc4nccc(C(=O)NCC(=O)N5CC(F)(F)C[C@H]5C#N)c4c3)cc12.[68Ga+3] (stereo partly shown) [[^68Ga]Ga-DOTAGA.Glu.(FAPI)2]
FAP; [3]
  Kd: 0.8 nM and 0.77 nM
  Bmax: 0.7 ± 0.04 nM and 0.67 ± 0.04 nM
PC3-mice; 1 h p.i.
  Uptake in Adrenal: 3.6±0.6 %I.A./g
  Uptake in Blood: 3.5 ± 0.2 %I.A./g
  Uptake in Bone: 4.9±0.8 %I.A./g
  Uptake in Gallbladder: 3.2±0.6 %I.A./g
  Uptake in Heart: 1.6±0.2 %I.A./g
  Uptake in Intestine: 1.4±0.2 %I.A./g
  Uptake in Kidney: 8.3±0.7 %I.A./g
  Uptake in Liver: 3±0.4 %I.A./g
  Uptake in Lung: 3.7±0.6 %I.A./g
  Uptake in Muscle: 1.9±0.2 %I.A./g
  Uptake in Pancreas: 2.5±0.2 %I.A./g
  Uptake in Salivary glands: 8.2±0.5 %I.A./g
  Uptake in Spleen: 1.6±0.01 %I.A./g
  Uptake in Stomach: 1.3±0.2 %I.A./g
  Uptake in Tumor: 18.2 ± 2.3 %I.A./g and 18.2±3.8 %I.A./g
PC3-mice; 2 h p.i.
  Uptake in Adrenal: 4.2±0.2 %I.A./g
  Uptake in Blood: 2.6±0.1 %I.A./g
  Uptake in Bone: 6.4±1.2 %I.A./g
  Uptake in Gallbladder: 2.3±0.4 %I.A./g
  Uptake in Heart: 1±0.01 %I.A./g
  Uptake in Intestine: 1±0.03 %I.A./g
  Uptake in Kidney: 4.8±0.5 %I.A./g
  Uptake in Liver: 1.4±0.04 %I.A./g
  Uptake in Lung: 1.7±0.2 %I.A./g
  Uptake in Muscle: 1.7±0.3 %I.A./g
  Uptake in Pancreas: 2.3±0.1 %I.A./g
  Uptake in Salivary glands: 6.5±1.1 %I.A./g
  Uptake in Spleen: 1±0.1 %I.A./g
  Uptake in Stomach: 0.9±0.04 %I.A./g
  Uptake in Tumor: 17.8 ± 0.5 %I.A./g
PC3-mice; 3 h p.i.
  Uptake in Adrenal: 3.9±2 %I.A./g
  Uptake in Blood: 2.5 ± 0.1 %I.A./g
  Uptake in Bone: 6.7±0.1 %I.A./g
  Uptake in Gallbladder: 2.6±1.1 %I.A./g
  Uptake in Heart: 1±0.2 %I.A./g
  Uptake in Intestine: 1.1±0.1 %I.A./g
  Uptake in Kidney: 4.4±0.4 %I.A./g
  Uptake in Liver: 1.6±0.2 %I.A./g
  Uptake in Lung: 1.4±0.1 %I.A./g
  Uptake in Muscle: 1.6±0.2 %I.A./g
  Uptake in Pancreas: 2±0.1 %I.A./g
  Uptake in Salivary glands: 6±0.1 %I.A./g
  Uptake in Spleen: 1.1±0.2 %I.A./g
  Uptake in Stomach: 1±0.1 %I.A./g
  Uptake in Tumor: 18.4 ± 2.2 %I.A./g and 18.4±2.1 %I.A./g
PC3-mice; [2]
  Uptake in Adrenal: 0.7±0.1 %I.A./g
  Uptake in Blood: 1.7±0.5 %I.A./g
  Uptake in Bone: 0.3±0.2 %I.A./g
  Uptake in Gallbladder: 5.5±0.6 %I.A./g
  Uptake in Heart: 0.6±0.1 %I.A./g
  Uptake in Intestine: 0.6±0.3 %I.A./g
  Uptake in Kidney: 5.6±1.8 %I.A./g
  Uptake in Liver: 0.6±0.2 %I.A./g
  Uptake in Lung: 1.3±0.5 %I.A./g
  Uptake in Muscle: 0.2±0.1 %I.A./g
  Uptake in Pancreas: 0.3±0.1 %I.A./g
  Uptake in Salivary glands: 0.7±0.1 %I.A./g
  Uptake in Spleen: 0.5±0.1 %I.A./g
  Uptake in Stomach: 0.5±0.1 %I.A./g
  Uptake in Tumor: 1.4±0.5 %I.A./g
PC3-mice
  tumor uptake: 18–19 %I.A./g

Source: article PMC12860872, “Preclinical evaluation of DOTAGA.Glu.(FAPI)2 and DO3A.Glu.(FAPI)2 as theranostics with human dosimetry extrapolation to lutetium-177 and terbium-161 analogs” (European Journal of Nuclear Medicine and Molecular Imaging, 2025)
